According to ChEMBL document CHEMBL3507680, “University of Dundee, Gates Library screen for HepG2 cell viability”:

test: Human HepG2 cell viability assay in 384 well format; assay type: toxicity, cell-based; design: dose 125 nL, time 70.5 hour; cytotoxicity at 70.5 h: concentration not given beside the values; settings: HepG2 cells, read-out: Inhibition

Point of comparison: `CC(C(=O)NCc1ccnc(Oc2ccc(F)cc2)c1)n1cncn1` (centres undefined), cytotoxicity at 70.5 h -9.56%. Against it:
- Cc1ccc(F)cc1-c1ccc(N)nc1 — higher, 15.8%
- COc1cccc(-c2noc(C3CCN(Cc4cccs4)C3)n2)c1 (centres undefined) — higher, 8.44%
- CCn1cnnc1CNC(=O)N1CCN(c2ccccc2Cl)CC1 — higher, -3.38%
- CCc1nc(C)sc1CN1CC[C@@](O)(C2CCOCC2)[C@H](C)C1 — lower, -12.2%
- Cc1nc(O)c2nnn(C[C@H]3CCCN3C(=O)C(C)(C)C)c2n1 — lower, -13.1%
- O=C(c1ccno1)N1C[C@@H](F)[C@@H](OCc2nc3ccccc3o2)C1 — higher, 0.816%
- CCc1ccc2nc(C)cc(C(=O)NC3CCCCNC3=O)c2c1 (centres undefined) — higher, 1.7%
- Cc1cc(CC(=O)N2CCc3cc(Br)sc3C2)n[nH]1 — higher, 12.5%
- c1ccc(C(CC2CN(Cc3ncc[nH]3)CCO2)c2ccccc2)cc1 (centres undefined) — higher, 0.214%
- COCc1nc(C(=O)NS(=O)(=O)c2ccc(F)c(F)c2)cs1 — higher, -6.1%
- Cc1ncsc1-c1nc(Cc2cccs2)nn1C1CCN(C)CC1 — higher, -4.07%
- Cc1c[nH]nc1C1CCN(C(=O)Cn2cccn2)C1 (centres undefined) — higher, -7.3%
- Cc1csc2cc(C(=O)NC3CC3)cnc12 — higher, -1.57%
- CC(C)N(C)CC(=O)N(C)Cc1nc(C(F)(F)F)cs1 — higher, 2.33%
- Cc1noc(C)c1CC(=O)N1CCCN(Cc2cscn2)CC1 — higher, -2.59%
- Cn1nnnc1SCCNC1CCN(c2ccc3c(c2)OCO3)CC1 — higher, 4.51%
- Cc1noc(C)c1CN1CCOC2(CCCN(c3ncccn3)C2)C1 (centres undefined) — higher, -5.7%
- CSc1ccc(C2SCC(=O)Nc3c2c(=O)[nH]n3C2CCOCC2)cc1 (centres undefined) — lower, -23.9%
- COc1ccc(C2CN(c3ncccn3)CCN2C(C)=O)cc1 (centres undefined) — higher, -5.51%
- c1ccc(-n2nnnc2CN2CCCC(Cn3cncn3)C2)cc1 (centres undefined) — higher, -0.367%
- CCCn1nnnc1CSc1nccn1Cc1ccccn1 — lower, -13.2%
- Cc1nc(C)n(C2CCCN(C(=O)CCc3cn(C)nc3C)C2)n1 (centres undefined) — higher, -0.365%
- O=C(CCn1cncn1)NCC1CCS(=O)(=O)C1 (centres undefined) — lower, -12.4%
- CN(Cc1nnc2n1CCC2)C(=O)NCCc1ccc2c(c1)OCO2 — lower, -11.6%
- c1ccc(-c2nc3c(c(NCCn4cccc4)n2)CCNCC3)nc1 — lower, -14.1%
- CCN(C(=O)c1ccc(-n2ncc(C#N)c2N)cc1)C1CCCC1 — lower, -12.1%
- CN(CC1CCCN1C)c1nccc(C2CCCC2)n1 (centres undefined) — higher, 6.3%
- CCNC(=O)CN(CC)C(=O)Cc1csc(C(C)C)n1 — higher, -1.29%
- O=C(Nc1ccccc1)N1CCC2(CC(=O)N(c3ccsc3)C2)C1 (centres undefined) — lower, -10%
- Cc1cnn(CCNCC(=O)NC(C)c2ccc3c(c2)OCCO3)c1 (centres undefined) — higher, -3.11%
- Cc1cc(S(=O)(=O)NCC(C)(C)N)c(F)cc1F — higher, -0.878%
- CC(C)(C)NC(=O)C1CSCN1S(=O)(=O)c1ccccc1F (centres undefined) — higher, -4.62%
- C[C@@H]1CN(Cc2cc(C3CCCCC3)no2)CC[C@]1(C)O — higher, -6.92%
- Cc1nc(CN2CCOC(CN(C)c3cccnn3)C2)cs1 (centres undefined) — lower, -12.9%
- Cc1nc(C)n(CC2CCCN(Cc3cccc(F)c3F)C2)n1 (centres undefined) — higher, 2.26%
- Cc1ccc(S(N)(=O)=O)cc1C(=O)NCC1Cc2ccccc2O1 (centres undefined) — higher, -3.82%
- CNc1nc2c(s1)C(c1c(Cl)cccc1Cl)CC(=O)N2 (centres undefined) — lower, -15.8%
- Nc1c(N2CCCCC2)ncnc1N1CCOCC1 — higher, 1.26%
- CCOc1ccc(NC(=O)N2CCNC(=O)C2)c(C(F)(F)F)c1 — higher, 1.37%
- Cc1cc(C(=O)Nc2ccc(OCCN3CCN(C)CC3)cc2)[nH]n1 — higher, 0.21%
- N#Cc1ccc(C(=O)N2CCCC3(C=Cc4ccccc4O3)CC2)cn1 (centres undefined) — higher, 7.89%
- Cn1cc(CN2CCc3c(c(COCC#N)nn3C)C2)cn1 — lower, -13.6%
- COc1ccc(O[C@H]2COCCN(C(=O)c3ccno3)C2)cc1 — higher, -2.74%
- N#Cc1ccc(NCC(=O)Nc2ncn(Cc3cccnc3)n2)cc1 — higher, -6.44%
- Cc1cnn(CC2CCCCN2C(=O)CC(F)(F)F)c1 (centres undefined) — higher, -3.76%
- CC(C)S(=O)(=O)CC(=O)N1CCCC(n2ccnc2)C1 (centres undefined) — higher, -0.47%
- Cn1cc(N2CCN(c3ccc(C#N)cc3Br)CC2=O)cn1 — higher, -4.85%
- CC(C)NC(=O)C1CCc2nnc(CNC(=O)C3CC3)n21 (centres undefined) — higher, -6.43%
- Cc1noc(C(C)N2CCN(CCC(=O)N3CCOCC3)CC2)n1 (centres undefined) — higher, -5.76%
- Cc1oc(-c2nc(C#N)c(N(C)C)o2)cc1S(=O)(=O)N1CCCC1 — lower, -21.5%
- O=C(CN1CCC(c2ccnn2CCO)CC1)NCc1cccs1 — higher, 18.4%
- COc1nc2c(cc1C(=O)NCCCc1csc(N)n1)CCC2 — higher, -6.85%
- O=C(NCC(O)(c1cccs1)C1CC1)NC1CCCCC1 (centres undefined) — higher, 10.9%
- CCOc1c(Cl)cccc1NS(=O)(=O)c1cc(C)c(C(=O)O)s1 — higher, -4.74%
- COc1ccccc1CN(Cc1cccnc1)CC1CCCO1 (centres undefined) — higher, -1.02%
- CCn1cnnc1CCNC(=O)c1ccc(F)c(Br)c1 — lower, -12.1%
- CN(C)c1ccc(CC2COCCN(Cc3nccn3C)C2)nn1 (centres undefined) — higher, -0.733%
- O=C(CCNc1ncccn1)N1CCCN(c2nccs2)CC1 — higher, 15.2%
- O=C(NCC1CC1)[C@@H]1C[C@@H]2CCN(Cc3ccccc3)C[C@H]2O1 — higher, -6.35%
- Cc1ccc(C)c(CS(=O)(=O)CC(=O)NC(C)c2ccc(F)cc2F)c1 (centres undefined) — higher, 8.01%
- Cc1ccc(NC2CCCN(Cc3ccc(Cl)cc3)C2)nn1 (centres undefined) — higher, 25.4%
- CCOCCCNC(=O)c1nn(CC)cc1Cl — higher, 21.2%
- CCCn1nc2c(cc1=O)CN(CC(=O)Nc1cc(C)no1)CC2 — higher, -7.27%
- COCCn1ccc2cc(C(=O)N3CCN(S(C)(=O)=O)CC3)ccc21 — higher, -5.85%
- Cc1cc(N2CCCN3CCC[C@H]3C2)n2nc(C)c(C)c2n1 — higher, -4.24%
- CC(C)c1nc(Cn2cncn2)n(-c2ccccn2)n1 — higher, -4.77%
- Cc1nccn1CCCn1cncc1-c1ccc2c(c1)CCC(C)N2C (centres undefined) — higher, -1.7%
- Cn1cc(C(=O)CC2CCCN2C(=O)c2ccn3ccnc3c2)cn1 (centres undefined) — lower, -10.3%
- N#Cc1cccc(CN2CC[C@@H]3CO[C@@H](CN4CCCC4)[C@@H]3C2)c1 — higher, -4.24%
- COc1ccc(C(=O)NS(=O)(=O)c2ccc(CNC(C)=O)s2)cc1 — higher, -4.22%
- COc1ccc2nnc(CCCC(=O)NCc3ccccc3F)n2n1 — higher, 21.9%
- COc1cccc(OCCNS(C)(=O)=O)c1 — higher, 1.43%
- Cc1nc(NCc2ccc(F)cc2)cc(C2CCCN2)n1 (centres undefined) — higher, -2.67%
- N#Cc1c(Cl)nsc1NCc1ccnc(OCC(F)(F)F)c1 — lower, -44.2%
- O=C(c1cnccn1)N1CCC(F)(F)C2(CCN(c3ccccn3)C2)C1 (centres undefined) — higher, -8.49%
- CC(CN1CCCC1=O)NC(=O)c1cc(-c2cccc(Cl)c2)no1 (centres undefined) — lower, -18.5%
- Cc1ccccc1CSc1nc(N)cc(N2CCCC(O)C2)n1 (centres undefined) — higher, 0.482%
- Cc1nc(CN2CCCn3nc(CNC(=O)C4CCC4)cc3C2)co1 — higher, 0.506%
- COc1ccc(OC)c(NC(=O)NCC(O)c2ccc(F)c(F)c2)c1 (centres undefined) — higher, 9.62%
- COc1cccc(CNc2c(O)c(=O)c2=O)c1 — lower, -20.2%
- Cc1ccc(OC2(C(=O)O)CCN(C(=O)c3ccccc3F)CC2)cn1 — higher, -3.34%
- COc1nccc(N2CC[C@H](N3CCOCC3)[C@H](CCCO)C2)c1C#N — higher, -7.48%
- c1ccc(Cc2nnc(CN3CCCC3Cn3cccn3)o2)cc1 (centres undefined) — higher, -1.31%
- Cc1[nH]ccc1C(=O)NC1CCC(N2C(=O)CCC2=O)CC1 (centres undefined) — higher, -2.84%
- Cc1ccc(CS(=O)(=O)N2CC[C@H]3[C@H]2CC(=O)N3C)cc1 — lower, -10.2%
- CSCCC1c2nc[nH]c2CCN1Cc1ccnc2ccccc12 (centres undefined) — lower, -12.3%
- COC(C)(C)CNC(=O)c1cn(-c2cccc(Cl)c2F)nn1 — higher, 4.1%
- CNC(=O)NC(=O)CCN1CCN(c2nccs2)CC1 — higher, -0.375%
- CN(CCS(=O)(=O)c1cc(Cl)ccc1Cl)CC(=O)Nc1ccc(F)cc1 — higher, 6.55%
- O=S(=O)(Cc1ccc(Br)cc1)NCCO — higher, -0.457%
- CCC(C(=O)N(C)C)N1CCC(c2nccn2Cc2cscn2)CC1 (centres undefined) — lower, -10%
- O=C(O)[C@]12CCCN(Cc3ccsc3)C[C@H]1CN(c1ncccn1)C2 — higher, 1.99%
- CC(C)N1CCCC2(CCN(Cc3nncn3C(C)C)C2)C1=O (centres undefined) — higher, -0.727%
- CCC(C)c1csc(NC(=O)c2sc(-c3nnc[nH]3)nc2C)n1 (centres undefined) — lower, -9.94%
- CN(C)CC1(O)CCN(C(=O)c2ccc(-n3cccn3)cc2Cl)C1 (centres undefined) — higher, 5.18%
- CN(C)CCNC(=O)c1ccn(-c2ccc3ccccn23)n1 — higher, -6.93%
- CCS(=O)(=O)N1CCc2ccc(NC(=O)Nc3ccccc3)cc21 — higher, 9.4%
- Cc1noc(C)c1CN(C)CCc1nc(-c2cccc(Cl)c2)no1 — lower, -10.4%
- CCn1ncc2[nH]c(-c3cc(OC)c(OC)cc3OC)nc21 — higher, 29.7%
- O=C(CCc1ccsc1)Nc1cnccc1O — higher, -6.71%
- CC(=O)c1ccc(S(=O)(=O)N2CCCC2CN2CCCC2)cc1 (centres undefined) — higher, -8.94%
- Cn1cc(CNC2CCCOc3c(Cl)cccc32)cn1 (centres undefined) — higher, 3.49%
- CC(C)c1noc(C(C)N2CCN(Cc3nc4ccccc4[nH]3)CC2)n1 (centres undefined) — higher, -8.5%
- CC1CCN(C(=O)[C@H]2C[C@@H]3CCN(CC4CCOCC4)C[C@@H]3O2)CC1 — higher, -6.29%
- COCCC(=O)N1CCN(C)c2ncccc2C1 — higher, -6.73%
- Cc1cccc(-c2nc(CN3CCn4c(nnc4C4CC4)C3)no2)c1 — lower, -12.1%
- COC[C@]12COC[C@H]1CN(C(=O)C1CC(F)(F)C1)C2 — higher, -8.18%
- Fc1cnc(N2CCCC3(CN(Cc4ccncc4)CCO3)C2)nc1 (centres undefined) — higher, -6.32%
- Cc1nc(N2CCOCC2)nc(C)c1NC(=O)Cc1ccc(Cl)cc1 — higher, 13.5%
- CC(=O)N1CCC(c2cc(C(F)(F)F)nc3nccn23)CC1 — higher, -8.29%
- Cc1ccccc1C(C(=O)N(C)CCc1cnn(C)c1)N(C)C (centres undefined) — higher, -0.295%
- Cc1c(NC(=O)c2cnc[nH]2)cccc1C(=O)NC(C)(C)C — higher, -5.11%
- CCNc1cc2c(nn1)CCN(C(=O)c1cc3nc(C)ccc3o1)C2 — higher, 22.7%
